Like-named read-outs stand apart in the source and are kept apart here.
Test system: A2780cis cells
Assay: Photo- and cytotoxic activity determination (MTT), A2780cis cells, normoxia or hypoxia
Assay type: cell-based
Conditions: A2780cis; for inhibition at 250 µM: 2 h incubation in the dark, 48 h drug-free recovery
Source text: Having shown that the Ir(III)-COUPY conjugates can sensitize both type I and II ROS through spectroscopic techniques and readily internalize into living cells, their photocytotoxicity was screened in various cancer cell lines. This screening included two representative melanoma cell lines (human A375 and […] human SK-MEL-28) and cancer cells with resistance to the clinical drug cisplatin. For the latter, both sensitive and cisplatin-resistant ovarian cancer cells (A2780 and A2780cis) as well as HeLa cells, which also show a degree of chemoresistance to the platinum anticancer drug in vitro,[54] were used. For the determination of dark and light cytotoxicity, dose–response curves were assayed from both conditions to provide the correspondent IC50 values, which correspond to the concentration needed for inhibition of cell growth by 50%. Phototherapeutic index (PI) was calculated as the ratio of dark to light IC50 value for each compound.
A375, HeLa, and SK-MEL-28 cells were cultured in Dulbecco’s modified Eagle medium (DMEM) supplemented with 10% FBS, L-glutamine, and 1% penicillin–streptomycin. A2780 and A2780cis cells were grown in RPMI-1640 cell medium supplemented with 10% fetal bovine serum (FBS) and 2 mM L-glutamine. Acquired resistance to cisplatin in the A2780cis cell line was maintained by adding cisplatin 1 μM to culture medium every second passage. Cells were cultured in a humidified incubator at 310 K with 5% CO2 atmosphere and subcultured two or three times a week with appropriate densities and were confirmed to be mycoplasma-free using a standard Hoechst DNA staining method.
A2780, A2780cis, HeLa, A375, and SK-MEL-28 cells were maintained at logarithmic growth-phase and cultured in 96-well plates at a density of 5000 cells/well in complete medium for 24 h at 310 K, 5% CO2 in a humidified incubator. For hypoxia experiments, a hypoxia condition was set up by Tissue Culture Service at University of Murcia using nitrogen (N2) to displace O2 down to a minimum of 2% in a Forma Steri-Cycle i160 incubator (Thermo Fisher Scientific). […] A light-based treatment schedule was performed as follows: 1 h incubation with the compounds in the dark, followed by 1 h incubation under irradiation conditions by placing the Photoreactor EXPO-LED from Luzchem (Canada) fitted with green lamps (final light intensity applied of 1.5 mW/cm^2 at λmax = 520 nm) inside the CO2 incubator. All the cell culture plates subjected to light irradiation included untreated controls to verify that cell viability was not affected by light. Then, treatment-containing media was removed, and fresh media was added for a 48 h cell recovery period; the temperature throughout the experiment remained at 310 K. Dark control samples were placed in the same dark conditions and then kept incubated for 1 h in the dark in the humidified CO2 incubator. Medium was then aspirated by suction, cells were loaded with 50 μL of MTT solution (1 mg/mL) for additional 4 h and then removed, and 50 μL of DMSO was added to solubilize the purple formazan crystals formed in active cells. The absorbance was measured at 570 nm using a microplate reader (FLUOstar Omega), and the IC50 values were calculated based on the inhibitory rate curves using the following equation [drawing 4] 4 where I represents the percentage inhibition of viability observed, Imax is the maximal inhibitory effect, IC50 is the concentration that inhibits 50% of maximal growth, C is the concentration of the treatment, and n is the slope of the semi-logarithmic dose–response sigmoidal curves. The non-linear fitting was performed using SigmaPlot 14.0 software. All experiments were performed in three independent studies with n = 3 replicates per concentration level. For a detailed phototoxicity procedure, ref ([43]) includes technical explanations.

What does the source list for `NCC(=O)CCC(=O)O` [5-ALA, 5-aminolevulinic acid, reference compound]?
inhibition at 250 µM (hypoxia, read-out: Partial inhibition (% of cell growth inhibition with respect to untreated controls), Hypoxia): 1 ± 0.2%; inhibition at 250 µM (normoxia, read-out: Partial inhibition (% of cell growth inhibition with respect to untreated controls), Normoxia): 3.5 ± 0.4%; IC50 (hypoxia 2% O2, 1 h incubation + 1 h green light 520 nm, 48 h drug-free, read-out: Hypoxia 520 nm IC50): > 250 µM; IC50 (hypoxia 2% O2, dark, tested up to 250 μM, read-out: Hypoxia Dark IC50): > 250 µM; IC50 (hypoxia, 520 nm, read-out: A2780cis Light 520 nm IC50 (microM) Hypoxia): > 250 µM; IC50 (hypoxia, dark, read-out: A2780cis Dark IC50 (microM) Hypoxia): > 250 µM; Normoxia PI (phototherapeutic index) (normoxia 21% O2, 520 nm, dark tested up to 250 μM): > 4.0; IC50 (normoxia 21% O2, dark, tested up to 250 μM, read-out: Normoxia Dark IC50): > 250 µM; IC50 (normoxia, 520 nm, read-out: A2780cis Light 520 nm IC50 (microM) Normoxia): 62 ± 12 µM; IC50 (normoxia, dark, up to 250 microM, read-out: A2780cis Dark IC50 (microM) Normoxia): > 250 µM
